Assay results reported in PubChem BioAssay (NCI).
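Growth conditions: 96-well plates. Treatment: test compound, 48 hours, 5 concentrations. Analysis: linear interpolation between bracketing concentrations; unreached endpoints set to highest concentration. TGI: concentration producing complete growth inhibition.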

Experiments:
Assay in all cases: growth of human tumour cells (NCI), 48 h
HOP-92 NSCLC = test system: HOP-92 NSCLC
786-0 renal = test system: 786-0 renal
M14 melanoma = test system: M14 melanoma
SK-MEL-28 melanoma = test system: SK-MEL-28 melanoma
SNB-19 CNS = test system: SNB-19 CNS
OVCAR-8 ovarian = test system: OVCAR-8 ovarian
U251 CNS = test system: U251 CNS
SK-MEL-2 melanoma = test system: SK-MEL-2 melanoma
CCRF-CEM leukemia = test system: CCRF-CEM leukemia

Structure (SMILES) | TGI (HOP-92 NSCLC) | TGI (786-0 renal) | TGI (M14 melanoma) | TGI (SK-MEL-28 melanoma) | TGI (SNB-19 CNS) | TGI (OVCAR-8 ovarian) | TGI (U251 CNS) | TGI (SK-MEL-2 melanoma) | TGI (CCRF-CEM leukemia)
O=C(CC(=O)C1CCOC1=O)C(=O)Nc1cccc(Cl)c1 (stereo not given) | > 100 µM | > 100 µM | > 100 µM | > 100 µM | > 100 µM | > 100 µM | > 100 µM | > 100 µM | –
Nc1c(-c2ccccc2-c2c(N)[n+]([O-])c3ccccc3[n+]2[O-])[n+]([O-])c2ccccc2[n+]1[O-] | > 100 µM | > 100 µM | 30.1 µM | > 100 µM | > 100 µM | 81.5 µM | > 100 µM | > 100 µM | > 28.4 µM
COc1cc(/C=C2\[C@H]3c4c(c(OC)c(C)c(OC)c4OC)CC(C(=O)N2Cc2ccccc2)N3C)c(OC)c(C)c1OC | 49.9 µM | 40.6 µM | 36 µM | 64.2 µM | 73.8 µM | > 100 µM | 34.7 µM | – | 42.5 µM
CCOC(=O)NC(=O)c1cn(C(CC)COC(=O)NCCCCCCNC(=O)OCC(CC)n2cc(C(=O)NC(=O)OCC)c(=O)[nH]c2=O)c(=O)[nH]c1=O (stereo not given) | – | > 100 µM | > 100 µM | > 100 µM | > 100 µM | > 100 µM | > 100 µM | > 100 µM | > 100 µM
Nc1ccccc1C(=O)/C=C/c1c(O)ccc2ccccc12 | > 100 µM | > 100 µM | > 100 µM | > 100 µM | > 100 µM | > 100 µM | > 100 µM | > 100 µM | > 100 µM
CC(C)CCC[C@@H](C)C1CCC2[C@@H]3CC=C4C[C@@H](C(=O)NCCN(C)C)CC[C@]4(C)C3CC[C@@]21C (stereo not given in full) | 61.4 µM | 43.2 µM | 32.6 µM | > 100 µM | > 100 µM | > 100 µM | 77.4 µM | 23.6 µM | 73.1 µM
COc1c(C)n(CCO)ccc1=O | > 100 µM | > 100 µM | > 100 µM | > 100 µM | > 100 µM | > 100 µM | > 100 µM | > 100 µM | > 100 µM
Nc1nc(-c2ccc(Cl)c([N+](=O)[O-])c2)cs1 | 74.6 µM | > 100 µM | > 100 µM | – | > 100 µM | > 100 µM | > 100 µM | > 100 µM | > 100 µM
Cc1ccc(C)c(N2C/C(=N\NC(=O)CC#N)C(c3nc4ccccc4s3)C(=O)C2=O)c1 (stereo not given) | > 100 µM | > 100 µM | > 100 µM | > 100 µM | > 100 µM | > 100 µM | > 100 µM | > 100 µM | > 100 µM
CC(C(=O)c1ccc(Cl)cc1)/C(=N/NC(=O)NN)C(=O)Nc1cccc(C(F)(F)F)c1 (stereo not given) | – | > 100 µM | > 100 µM | > 100 µM | > 100 µM | > 100 µM | > 100 µM | > 100 µM | > 100 µM
Cc1[nH]c2ccccc2c1C1Cc2ccccc2N1C(=O)C#Cc1ccc([N+](=O)[O-])cc1 (stereo not given) | – | > 100 µM | > 100 µM | > 100 µM | > 100 µM | > 100 µM | > 100 µM | – | > 100 µM
Cn1c(=O)nc2n(-c3cc(C(F)(F)F)cc(C(F)(F)F)c3)c3ccccc3nc-2c1=O | > 100 µM | > 100 µM | > 100 µM | > 100 µM | > 100 µM | > 100 µM | > 100 µM | > 100 µM | –
COC(=O)/C(=N/O)C(C(=O)C=C(C)C)C(=O)C(=O)Nc1nc2ccc([N+](=O)[O-])cc2s1 (stereo not given) | 42.8 µM | > 100 µM | > 100 µM | > 100 µM | > 100 µM | > 100 µM | > 100 µM | 71.9 µM | 74.7 µM
COC(=O)C(=O)C(C(C)=O)C(=O)NCc1ccc(OC)c(OC)c1 (stereo not given) | > 100 µM | > 100 µM | > 100 µM | > 100 µM | > 100 µM | > 100 µM | > 100 µM | > 100 µM | > 100 µM
COC(=O)/C([Se]c1c(C)cc(C)cc1C)=C(/[Se]c1c(C)cc(C)cc1C)C(=O)OC | > 100 µM | > 100 µM | > 100 µM | – | > 100 µM | > 100 µM | > 100 µM | > 100 µM | > 100 µM
O=C(N/C(=C\c1ccc([N+](=O)[O-])cc1)c1nc2ccccc2[nH]1)c1ccccc1 | > 100 µM | > 100 µM | > 100 µM | > 100 µM | > 100 µM | > 100 µM | > 100 µM | > 100 µM | –
CN(C(=O)c1ccc([N+](=O)[O-])cc1)c1ccccc1 | > 100 µM | > 100 µM | > 100 µM | > 100 µM | > 100 µM | > 100 µM | > 100 µM | – | > 100 µM
O=[N+]([O-])c1cccc(C2=NOC(C3CCCCC3)C2)c1 (stereo not given) | > 100 µM | > 100 µM | > 100 µM | > 100 µM | – | > 100 µM | > 100 µM | > 100 µM | > 100 µM
